Converted amounts (≈) assume the structure as drawn. Residues, ends and D or L forms follow the SMILES beside them.
How the values were obtained:
[1] = system: S. epidermidis (ATCC 35984) biofilm; assay: Biofilm-formation inhibitory activity, crystal violet staining; format: cell-based, Staphylococcus epidermidis; conditions: CV staining, TSB, 10^6 CFU/mL, 24 h, 37°C, 0.98-250 µg/mL; for MBIC50: minimum concentration inhibiting biofilm formation more than 50%; for MBIC90: minimum concentration inhibiting biofilm formation more than 90%
Procedure: The biofilm inhibitory activity of peptide derivatives was assessed by modified crystal violet (CV) staining. Briefly, the pellet of S. epidermidis (ATCC 35984) was collected through centrifugation of bacterial suspensions grown overnight at 2,500 × g for 5 min. Subsequently, the pellet was resuspended and diluted with TSB to a final concentration of 10^6 CFU/mL. Then, 50 µL of these diluted suspensions was transferred to 96-well microplates containing same volume of peptide derivatives in 10 mM phosphate buffer saline (PBS; Caisson Labs, USA), with concentrations ranging from 0.98 to 250 µg/mL. Vancomycin was used as positive control while TSB medium without bacteria was used as negative control. After 24 h of incubation and reaching static growth at 37°C, culture media as well as planktonic cells were removed, then the biofilm in each well was washed thrice with 0.85% NaCl. For CV staining, biofilms were fixed with 95% ethanol and stained with a 0.1% (v/v) CV solution for 15 min. After removal of excess dye, each well was washed thrice with 0.85% NaCl and resuspended in 95% ethanol to dissolve bound dye. Absorbance was determined at 570 nm using a Multiskan SkyHigh microplate reader (Thermo Scientific™, Singapore). All experiments were done in six technical replicates and repeated independently three times. Minimum biofilm inhibitory concentrations at 50% and 90% (MBIC50 and MBIC90) refers to concentrations of the peptide at which the inhibition of biofilm was at least 50% and 90%, respectively.

[2] = system: Acinetobacter baumanii MT strain; assay: Broth microdilution MIC / MBC; format: cell-based; conditions: 24 h, 37°C
Procedure: (§1) The minimal inhibitory concentrations (MICs) of peptide derivatives versus planktonic bacteria were assessed using a modification of the broth microdilution assay previously described in the National Committee for Clinical Laboratory Standards (NCCLS). In brief, bacteria at mid-logarithmic growth were collected by centrifugation at 2,500 × g for 5 min. Subsequently, the pellet was resuspended and adjusted in Mueller-Hinton Broth (MHB; BD Bacto™, USA) to an OD620 of 0.05. Fifty µL of bacterial suspensions was transferred to 96-well microplates. Later, 50 µL of peptide derivatives at 0.98–250 µg/mL in 10 mM PBS, was added to wells and incubated for 24 h at 37°C with continuous shaking at 220 rpm. […] The experiments were done in three technical replicates and repeated independently.
(§2) To determine minimal bactericidal concentrations (MBCs) of the peptides, 50 µL of supernatant from non-turbid wells was plated on TSA, and the number of colony-forming units (CFUs) was observed after 24 h of incubation at 37°C. MBC was defined as the minimum concentration of peptide at which no bacterial colony was observed on the plate.

[3] = system: Bacillus cereus ATCC 11778; assay: Broth microdilution MIC / MBC; format: cell-based; conditions: 24 h, 37°C
Procedure: as §1, §2

[4] = system: Escherichia coli ATCC 25922; assay: Broth microdilution MIC / MBC; format: cell-based; conditions: 24 h, 37°C
Procedure: as §1, §2

[5] = system: Listeria monocytogenes 10403s; assay: Broth microdilution MIC / MBC; format: cell-based; conditions: 24 h, 37°C
Procedure: as §1, §2

[6] = system: Pseudomonas aeruginosa ATCC 27853; assay: Broth microdilution MIC / MBC; format: cell-based; conditions: 24 h, 37°C
Procedure: as §1, §2

[7] = system: Salmonella Typhimurium ATCC 13311; assay: Broth microdilution MIC / MBC; format: cell-based; conditions: 24 h, 37°C
Procedure: as §1, §2

[8] = system: Staphylococcus aureus ATCC 25923; assay: Broth microdilution MIC / MBC; format: cell-based; conditions: 24 h, 37°C
Procedure: as §1, §2

[9] = system: Staphylococcus epidermidis ATCC 35984; assay: Broth microdilution MIC / MBC; format: cell-based; conditions: 24 h, 37°C
Procedure: as §1, §2

[10] = system: human red blood cells (hRBCs); assay: Hemolysis activity (hemoglobin release); format: cell-based; conditions: 1 h, 37°C
Procedure: The effect of peptides on human red blood cells (hRBCs) was assessed by observing the release of hemoglobin upon treated with peptide. Briefly, the hRBCs were obtained from healthy volunteers and subsequently diluted in 10 mM PBS to a concentration of 2% hRBCs. An equal volume of 2% hRBCs and peptide at concentration of 0.98–250 µg/mL in 10 mM PBS mixtures were incubated for 1 h at 37°C. Following incubation, the suspension was centrifuged, then supernatants were collected and transferred to 96-well microplates for measurement of absorbance at OD of 405 nm (OD405). This study was performed in accordance with the Thammasat University Ethics Committee (COA No. 066/2562). Written informed consent was obtained from all volunteers.

[11] = system: all gram-positive bacterial strains; assay: Mean MIC and therapeutic index, gram-positive strains; format: cell-based; conditions: four gram-positive strains
Procedure: as §1
(§3) The therapeutic index (TI) is widely used for evaluating a peptide’s efficacy and safety. It is the ratio between the minimum hemolytic concentration (MHC, the concentration causing 10% hemolysis) and the geometric mean (GM) value of the MIC [15]. […] While, both lysine-substituted peptides (BiF2_7K and BiF2_5K7K) had higher TIs against all tested biofilm-forming bacteria than did the two parent peptides, and the TI of BiF2_5K7K was higher than that of BiF2_7K.

[12] = system: all gram-negative bacterial strains; assay: Mean MIC and therapeutic index, gram-negative strains; format: cell-based; conditions: four gram-negative strains
Procedure: as §1, §3

[13] = broth microdilution, MHB, 0.98-250 µg/mL, visible inspection
[14] = plating of non-turbid wells on TSA

CN[C@H](CC(C)C)C(=O)N[C@H]1C(=O)N[C@@H](CC(N)=O)C(=O)N[C@H]2C(=O)N[C@H]3C(=O)N[C@H](C(=O)N[C@H](C(=O)O)c4cc(O)cc(O)c4-c4cc3ccc4O)[C@H](O)c3ccc(c(Cl)c3)Oc3cc2cc(c3O[C@@H]2O[C@H](CO)[C@@H](O)[C@H](O)[C@H]2O[C@H]2C[C@](C)(N)[C@H](O)[C@H](C)O2)Oc2ccc(cc2Cl)[C@H]1O [vancomycin, reference compound]
MBIC50 [1]: 3.91 µg/mL
MBIC90 [1]: 3.91 µg/mL

CC[C@H](C)[C@H](NC(=O)[C@H](CC(C)C)NC(=O)[C@H](CCCCN)NC(=O)[C@@H](NC(=O)[C@H](CC(C)C)NC(=O)[C@@H](N)Cc1ccccc1)C(C)C)C(=O)N[C@@H](CCCCN)C(=O)N[C@@H](CCCCN)C(=O)N[C@H](C(=O)N[C@@H](CC(C)C)C(=O)N[C@@H](CCCNC(=N)N)C(=O)N[C@@H](CCCNC(=N)N)C(N)=O)[C@@H](C)CC [BiF2_7K] (H-FLVKLIKKILRR-NH2; N-terminus assumed)
MBIC50 [1]: 3.91 µg/mL
MBIC90 [1]: 7.81 µg/mL
MIC [2, 13]: 7.81 µg/mL (≈ 5.12 µM)
MBC [2, 14]: 7.81 µg/mL (≈ 5.12 µM)
MIC [3, 13]: 7.81 µg/mL (≈ 5.12 µM)
MBC [3, 14]: 7.81 µg/mL (≈ 5.12 µM)
MIC [4, 13]: 31.2 µg/mL (≈ 20.5 µM)
MBC [4, 14]: 31.2 µg/mL (≈ 20.5 µM)
MIC [5, 13]: 7.81 µg/mL (≈ 5.12 µM)
MBC [5, 14]: 7.81 µg/mL (≈ 5.12 µM)
MIC [6, 13]: 15.6 µg/mL (≈ 10.2 µM)
MBC [6, 14]: 15.6 µg/mL (≈ 10.2 µM)
MIC [7, 13]: 7.81 µg/mL (≈ 5.12 µM)
MBC [7, 14]: 15.63 µg/mL (≈ 10.2 µM)
MIC [8, 13]: 15.6 µg/mL (≈ 10.2 µM)
MBC [8, 14]: 15.6 µg/mL (≈ 10.2 µM)
MIC [9, 13]: 7.81 µg/mL (≈ 5.12 µM)
MBC [9, 14]: 7.81 µg/mL (≈ 5.12 µM)
hemolytic activity ([10]; at 250 µg/mL (maximum concentration tested)): 60%
MHC, minimum hemolytic concentration ([10]; peptide concentration causing 10% hemolysis of hRBCs, 2% hRBCs in 10 mM PBS, OD405): 15.63 µg/mL
GM +, geometric mean of MIC values from all gram-positive bacterial strains [11]: 9.77 µg/mL
GM-, geometric mean of MIC values from all gram-negative bacterial strains [12]: 15.63 µg/mL

— PMC11100219, “Dual-function antimicrobial-antibiofilm peptide hybrid to tackle biofilm-forming Staphylococcus epidermidis” (Annals of Clinical Microbiology and Antimicrobials, 2024)
